Test results published in patent US20230028441A1, “NOVEL HETEROARYL-TRIAZOLE COMPOUNDS AS PESTICIDES” (Bayer Aktiengesellschaft, priority 2019, published 2023).

Key:
Assay type in all cases: in vivo
[1] = tested on: cattle tick larvae (Rhipicephalus microplus), strain Parkhurst, resistant against synthetic pyrethroids; test: Rhipicephalus (Boophilus) microplus in-vitro contact test, larval cattle tick; conditions: 5 μg/cm^2 (=500 g/ha), after 48 hours, read-out: efficacy (larvae dead or moribund)
Method in brief: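 Acetone solutions of compound were coated on glass tube walls (900 ppm giving 5 μg/cm^2) and dried. 20–50 pyrethroid-resistant Parkhurst larvae were held per tube at 27° C and 85% relative humidity; after 48 h negative geotaxis scored efficacy as percent larvae dead or moribund.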

[2] = tested on: adult engorged female ticks (Rhipicephalus microplus); test: Rhipicephalus (Boophilus) microplus injection test; conditions: 168 h, egg deposition after 7 days, read-out: efficacy (infertile eggs); for pest or weed control at 0.004 mg: 4 μg/animal
Method in brief: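 Compound was dissolved in DMSO at 10 mg per 0.5 mL and diluted with DMSO to the test concentration. Five engorged adult females received a 1 μL abdominal injection and were kept in a climate chamber. After 7 days, fertile egg deposition was scored, with unclear eggs held until hatching at about 42 days; 100% efficacy means all eggs were infertile.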

[3] = tested on: adult cat fleas (Ctenocephalides felis); test: Ctenocephalides felis in-vitro contact test, adult cat flea; conditions: 5 μg/cm^2 (=500 g/ha), after 48 hours, read-out: efficacy (fleas dead or moribund)
Method in brief: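 Acetone solutions were coated on glass tube walls, 900 ppm giving 5 μg/cm^2. After drying, 5-10 adult fleas per tube were held 48 h at room temperature. Fleas unable to climb away from a 45-50 °C heating plate within 5 min were scored dead or moribund, as % efficacy.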

[4] = tested on: larvae of the banded cucumber beetle (Diabrotica balteata); test: Diabrotica balteata spray test; conditions: 168 h, after 7 days, wheat seeds, read-out: efficacy (seedlings grown up); for pest or weed control at 32 µg/disc, 100 g/ha: 100 g/ha (=32 μg/well)
Method in brief: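 Germinated wheat seedlings (5 per well, agar plates) sprayed with compound in acetone/DMF diluted in water with 1000 ppm emulsifier, then infested with 10-20 larvae per unit. Efficacy scored after 7 days as % seedling growth relative to untreated, uninfested control (100% = normal growth, 0% = none).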

[5] = tested on: larvae of the southern green stink bug (Nezara viridula); test: Nezara viridula spray test; conditions: in Hordeum vulgare, 96 h
Method in brief: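 Barley plants infested with Nezara viridula larvae were sprayed with compound in acetone/dimethylformamide, diluted in water containing 1000 ppm alkylarylpolyglycol ether emulsifier. Mortality (%) was scored after 4 days; 100% means all stink bugs killed.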

[6] = tested on: brown planthopper (Nilaparvata lugens); test: Nilaparvata lugens spray test; conditions: in Oryza sativa, 96 h
Method in brief: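 Rice plants (Oryza sativa) sprayed with compound in acetone/DMF diluted in water containing 1000 ppm alkylarylpolyglycol ether emulsifier, then infested with planthoppers. Mortality % scored after 4 days (100% = all killed, 0% = none killed).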

[7] = tested on: fall armyworm larvae (Spodoptera frugiperda); test: Spodoptera frugiperda spray test (maize leaf sections); conditions: 168 h
Method in brief: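 Maize leaf sections were sprayed with compound formulated in acetone/DMF and diluted in water containing 1000 ppm emulsifier. Once dry, sections were infested with fall armyworm larvae. Mortality (%) was scored after 7 days.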

[8] = tested on: Aedes aegypti strain MONHEIM; test: Aedes aegypti test (AEDSAE surface treatment & contact assay); conditions: 24 hours after contact, read-out: efficacy (mortality); for mortality at 4 mg/m2: surface concentration 4 mg/m^2, 30 minutes exposure; for mortality at 20 mg/m2: surface concentration 20 mg/m^2, 30 minutes exposure
Experimental: (§1) Solvent: Aceton+2000 ppm rapeseed oil methyl ester (RME)
(§2) In order to produce a sufficient, active ingredient containing solution it is necessary to solve the test compound in the solvent-mix (acetone at 2 mg/ml/RME 2000 ppm). This solution is pipetted onto a glazed tile and after evaporation of the acetone, adult mosquitoes of the species Aedes aegypti strain MONHEIM are placed onto the dried surface. The exposure time is 30 minutes. Mortality in percent (%) is determined 24 hours after contact of the insects to the treated surface. 100% mortality means that all tested insects are dead, whereas 0% means that no insect died.

[9] = tested on: Musca domestica strain WHO-N; test: Musca domestica test (MUSCDO surface treatment & contact assay); conditions: 24 hours after contact, read-out: efficacy (mortality); for mortality at 4 mg/m2: surface concentration 4 mg/m^2, 30 minutes exposure; for mortality at 20 mg/m2: surface concentration 20 mg/m^2, 30 minutes exposure
Experimental: as §1
as §2, with “flies” for “mosquitoes”, “Musca domestica” for “Aedes aegypti”, “WHO-N” for “MONHEIM”

SMILES	pest or weed control at 5 µg/cm2 [1] [%]	pest or weed control at 0.004 mg [2] [%]	pest or weed control at 0.02 mg ([2]; 20 μg/animal) [%]	pest or weed control at 5 µg/cm2 [3] [%]	pest or weed control at 32 µg/disc, 100 g/ha [4] [%]	pest or weed control at 160 µg/disc, 500 g/ha ([4]; 500 g/ha (=160 μg/well)) [%]	mortality at 100 g/ha [5] [%]	mortality at 500 g/ha [5] [%]	mortality at 500 g/ha [6] [%]	mortality at 100 g/ha [7] [%]	mortality at 500 g/ha [7] [%]	mortality at 4 mg/m2 [8] [%]	mortality at 20 mg/m2 [8] [%]	mortality at 4 mg/m2 [9] [%]	mortality at 20 mg/m2 [9] [%]	mortality at 100 g/ha [6] [%]
CC(NC(=O)c1cc(Cl)cc(C(F)(F)F)c1)c1nc(N)nn1-c1ccc(Cl)cn1 (racemic) [I-006, N-[1-[5-amino-2-(5-chloro-2-pyridyl)-1,2,4-triazol-3-yl]ethyl]-3-chloro-5-(trifluoromethyl)benzamide]	100	100	100	100	100	100	100	100	90	100	100	90 to 100	90 to 100	90 to 100	90 to 100	–
CNc1nc(C(C)NC(=O)c2cc(C(F)(F)F)cc(C(F)(F)F)c2)n(-c2ncccn2)n1 (centres unmarked) [I-088]	100	100	–	100	100	–	100	–	–	100	–	90 to 100	90 to 100	90 to 100	90 to 100	100
